# Experimental data taken from PubChem BioAssay (NCI).
#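 Tested at 5 concentrations; 48 h exposure; 96-well plates; endpoints linearly interpolated, else capped at highest concentration. Abbreviation: GI50, concentration required for 50% inhibition of growth. The concentration for full growth arrest is given as TGI.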
# Columns and labels:
# Assay in all cases: inhibition of tumour cell growth, NCI panel, 48 h
# COLO 205 colon = tested on: COLO 205 colon
# SK-OV-3 ovarian = tested on: SK-OV-3 ovarian
# 786-0 renal = tested on: 786-0 renal
# M14 melanoma = tested on: M14 melanoma
# SK-MEL-5 melanoma = tested on: SK-MEL-5 melanoma
# HS 578T breast = tested on: HS 578T breast
# MALME-3M melanoma = tested on: MALME-3M melanoma
# HCT-116 colon = tested on: HCT-116 colon
# HT29 colon = tested on: HT29 colon
# HOP-62 NSCLC = tested on: HOP-62 NSCLC
# MOLT-4 leukemia = tested on: MOLT-4 leukemia
# UACC-257 melanoma = tested on: UACC-257 melanoma
# OVCAR-8 ovarian = tested on: OVCAR-8 ovarian
# IGROV1 ovarian = tested on: IGROV1 ovarian
# ACHN renal = tested on: ACHN renal
# KM12 colon = tested on: KM12 colon
# NCI-H460 lung = tested on: NCI-H460 lung
# SW-620 colon = tested on: SW-620 colon
# SF-268 CNS = tested on: SF-268 CNS
# HCT-15 colon = tested on: HCT-15 colon
# RPMI-8226 leukemia = tested on: RPMI-8226 leukemia
# OVCAR-4 ovarian = tested on: OVCAR-4 ovarian
# NCI-H522 lung = tested on: NCI-H522 lung
# NCI-H226 lung = tested on: NCI-H226 lung
# MDA-MB-435 = tested on: MDA-MB-435
# OVCAR-5 ovarian = tested on: OVCAR-5 ovarian
# T-47D breast = tested on: T-47D breast
# RXF 393 renal = tested on: RXF 393 renal
# SN12C renal = tested on: SN12C renal
# SF-539 CNS = tested on: SF-539 CNS
# UACC-62 melanoma = tested on: UACC-62 melanoma
# NCI/ADR-RES ovarian = tested on: NCI/ADR-RES ovarian
# SF-295 CNS = tested on: SF-295 CNS
# BT-549 breast = tested on: BT-549 breast
# HL-60(TB) leukemia = tested on: HL-60(TB) leukemia
# NCI-H23 lung = tested on: NCI-H23 lung
# HCC-2998 colon = tested on: HCC-2998 colon
# DU-145 prostate = tested on: DU-145 prostate
# SK-MEL-2 melanoma = tested on: SK-MEL-2 melanoma
# OVCAR-3 ovarian = tested on: OVCAR-3 ovarian
# SK-MEL-28 melanoma = tested on: SK-MEL-28 melanoma
# LOX IMVI melanoma = tested on: LOX IMVI melanoma
# MDA-MB-231 breast = tested on: MDA-MB-231 breast
# U251 CNS = tested on: U251 CNS
# K-562 leukemia = tested on: K-562 leukemia
# SNB-19 CNS = tested on: SNB-19 CNS
# SNB-75 CNS = tested on: SNB-75 CNS
# UO-31 renal = tested on: UO-31 renal
# SR leukemia = tested on: SR leukemia
# TK-10 renal = tested on: TK-10 renal
# MCF7 breast = tested on: MCF7 breast
# HOP-92 NSCLC = tested on: HOP-92 NSCLC
smiles,measurement,setting,value
N#Cc1cnc2ccc(NCc3cnc[nH]3)cc2c1Nc1ccc(F)c(Cl)c1,GI50,COLO 205 colon,> 100 µM
same,TGI,COLO 205 colon,> 100 µM
same,GI50,SK-OV-3 ovarian,4.2 µM
same,TGI,SK-OV-3 ovarian,> 100 µM
same,GI50,786-0 renal,9.21 µM
same,TGI,786-0 renal,> 100 µM
same,GI50,M14 melanoma,14.3 µM
same,TGI,M14 melanoma,> 100 µM
same,GI50,SK-MEL-5 melanoma,19 µM
same,TGI,SK-MEL-5 melanoma,> 100 µM
same,GI50,HS 578T breast,4.79 µM
same,TGI,HS 578T breast,> 100 µM
same,GI50,MALME-3M melanoma,11.9 µM
same,TGI,MALME-3M melanoma,36.1 µM
same,GI50,HCT-116 colon,6.85 µM
same,TGI,HCT-116 colon,> 100 µM
same,GI50,HT29 colon,> 100 µM
same,TGI,HT29 colon,> 100 µM
same,GI50,HOP-62 NSCLC,10.5 µM
same,TGI,HOP-62 NSCLC,> 100 µM
same,GI50,MOLT-4 leukemia,> 100 µM
same,TGI,MOLT-4 leukemia,> 100 µM
same,GI50,UACC-257 melanoma,86 µM
same,TGI,UACC-257 melanoma,> 100 µM
same,GI50,OVCAR-8 ovarian,4.51 µM
same,TGI,OVCAR-8 ovarian,> 100 µM
same,GI50,IGROV1 ovarian,2.6 µM
same,TGI,IGROV1 ovarian,> 100 µM
same,GI50,ACHN renal,2.88 µM
same,TGI,ACHN renal,> 100 µM
same,GI50,KM12 colon,> 100 µM
same,TGI,KM12 colon,> 100 µM
same,GI50,NCI-H460 lung,10.3 µM
same,TGI,NCI-H460 lung,> 100 µM
same,GI50,SW-620 colon,8.69 µM
same,TGI,SW-620 colon,> 100 µM
same,GI50,SF-268 CNS,5.97 µM
same,TGI,SF-268 CNS,> 100 µM
same,GI50,HCT-15 colon,> 100 µM
same,TGI,HCT-15 colon,> 100 µM
same,GI50,RPMI-8226 leukemia,> 100 µM
same,TGI,RPMI-8226 leukemia,> 100 µM
same,GI50,OVCAR-4 ovarian,2.44 µM
same,TGI,OVCAR-4 ovarian,> 100 µM
same,GI50,NCI-H522 lung,4.6 µM
same,TGI,NCI-H522 lung,> 100 µM
same,GI50,NCI-H226 lung,> 100 µM
same,TGI,NCI-H226 lung,> 100 µM
same,GI50,MDA-MB-435,14.7 µM
same,TGI,MDA-MB-435,88.5 µM
same,GI50,OVCAR-5 ovarian,18.2 µM
same,TGI,OVCAR-5 ovarian,> 100 µM
same,GI50,T-47D breast,4.68 µM
same,TGI,T-47D breast,> 100 µM
same,GI50,RXF 393 renal,7.03 µM
same,TGI,RXF 393 renal,> 100 µM
same,GI50,SN12C renal,4.17 µM
same,TGI,SN12C renal,> 100 µM
same,GI50,SF-539 CNS,14.7 µM
same,TGI,SF-539 CNS,> 100 µM
same,GI50,UACC-62 melanoma,13.9 µM
same,TGI,UACC-62 melanoma,75 µM
same,GI50,NCI/ADR-RES ovarian,> 100 µM
same,TGI,NCI/ADR-RES ovarian,> 100 µM
same,GI50,SF-295 CNS,20.1 µM
same,TGI,SF-295 CNS,> 100 µM
same,GI50,BT-549 breast,> 100 µM
same,TGI,BT-549 breast,> 100 µM
same,GI50,HL-60(TB) leukemia,15.2 µM
same,TGI,HL-60(TB) leukemia,> 100 µM
same,GI50,NCI-H23 lung,> 100 µM
same,TGI,NCI-H23 lung,> 100 µM
same,GI50,HCC-2998 colon,> 100 µM
same,TGI,HCC-2998 colon,> 100 µM
same,GI50,DU-145 prostate,2.27 µM
same,TGI,DU-145 prostate,> 100 µM
same,GI50,SK-MEL-2 melanoma,6.34 µM
same,TGI,SK-MEL-2 melanoma,> 100 µM
same,GI50,OVCAR-3 ovarian,3.38 µM
same,TGI,OVCAR-3 ovarian,> 100 µM
same,GI50,SK-MEL-28 melanoma,17.3 µM
same,TGI,SK-MEL-28 melanoma,58.4 µM
same,GI50,LOX IMVI melanoma,5.62 µM
same,TGI,LOX IMVI melanoma,> 100 µM
same,GI50,MDA-MB-231 breast,17 µM
same,TGI,MDA-MB-231 breast,> 100 µM
same,GI50,U251 CNS,8.96 µM
same,TGI,U251 CNS,> 100 µM
same,GI50,K-562 leukemia,9.3 µM
same,TGI,K-562 leukemia,> 100 µM
same,GI50,SNB-19 CNS,27 µM
same,TGI,SNB-19 CNS,> 100 µM
same,GI50,SNB-75 CNS,11.1 µM
same,TGI,SNB-75 CNS,95.8 µM
same,GI50,UO-31 renal,3.52 µM
same,TGI,UO-31 renal,> 100 µM
same,GI50,SR leukemia,5.65 µM
same,TGI,SR leukemia,> 100 µM
same,GI50,TK-10 renal,2.77 µM
same,TGI,TK-10 renal,97.2 µM
same,GI50,MCF7 breast,20.1 µM
same,TGI,MCF7 breast,> 100 µM
same,GI50,HOP-92 NSCLC,1.08 µM
same,TGI,HOP-92 NSCLC,> 100 µM
CC(=O)OCC1OC(n2c(-c3ccc(C)cc3)cc(-c3ccco3)c(C#N)c2=O)C(OC(C)=O)C(OC(C)=O)C1OC(C)=O (stereo unspecified),TGI,HL-60(TB) leukemia,> 100 µM
same,TGI,SNB-75 CNS,> 100 µM
